Measurements as given in ChEMBL document CHEMBL3217615, “Novel 3,5-bis(arylidiene)-4-piperidone based monocarbonyl analogs of curcumin: anticancer activity evaluation and mode of action study” (2014).

Legend:
Format in all cases: functional
COLO 205 [1] = assay: Induction of apoptosis in human COLO205 cells assessed as early apoptosis cells level at 10 uM after 24 hrs by Annexin V/propidium iodide staining-based fluorescence microscopy
[2] = Growth inhibition of human UACC257 cells assessed as cell growth at 10^-6 M after 48 hrs by sulforhodamine B assay; conditions: UACC-257, 48 h, read-out: Activity
SNB-19 = assay: Growth inhibition of human SNB19 cells assessed as cell growth at 10^-6 M after 48 hrs by sulforhodamine B assay; conditions: SNB-19, 48 h, read-out: Activity
[3] = Growth inhibition of human UACC257 cells assessed as cell growth at 10^-4 M after 48 hrs by sulforhodamine B assay; conditions: UACC-257, 48 h, read-out: Activity
NCI-H322M = assay: Growth inhibition of human NCI-H322M cells assessed as cell growth at 10^-4 M after 48 hrs by sulforhodamine B assay; conditions: read-out: Activity
NCI-H23 = assay: Growth inhibition of human NCI-H23 cells assessed as cell growth at 10^-4 M after 48 hrs by sulforhodamine B assay; conditions: NCI-H23, 48 h, read-out: Activity
CCRF-CEM = assay: Growth inhibition of human CCRF-CEM cells assessed as cell growth at 10^-4 M after 48 hrs by sulforhodamine B assay; conditions: read-out: Activity
[4] = Growth inhibition of human UACC62 cells assessed as cell growth at 10^-8 M after 48 hrs by sulforhodamine B assay; conditions: UACC-62, 48 h; for growth at 0.01 µM: read-out: Activity; for TGI: read-out: pTGI (converted)
HCT-116 = assay: Growth inhibition of human HCT116 cells assessed as cell growth at 10^-8 M after 48 hrs by sulforhodamine B assay; conditions: HCT-116, 48 h; for growth at 0.01 µM: read-out: Activity; for TGI: read-out: pTGI (converted)
[5] = Growth inhibition of human MOLT4 cells assessed as cell growth at 10^-8 M after 48 hrs by sulforhodamine B assay; conditions: MOLT-4, 48 h; for growth at 0.01 µM: read-out: Activity; for CC50: read-out: pLC50 (the source's name) (converted); for TGI: read-out: pTGI (converted)
K562 = assay: Growth inhibition of human K562 cells assessed as cell growth at 10^-8 M after 48 hrs by sulforhodamine B assay; conditions: K562, 48 h; for growth at 0.01 µM: read-out: Activity; for CC50: read-out: pLC50 (the source's name) (converted); for TGI: read-out: pTGI (converted)
[6] = Growth inhibition of human UO31 cells after 48 hrs by sulforhodamine B assay; conditions: UO-31, 48 h; for CC50: read-out: LC50 (the source's name)
A498 [7] = assay: Growth inhibition of human A498 cells after 48 hrs by sulforhodamine B assay; conditions: A498, 48 h; for CC50: read-out: LC50 (the source's name)
[8] = Growth inhibition of human OVCAR4 cells after 48 hrs by sulforhodamine B assay; conditions: OVCAR-4, 48 h; for CC50: read-out: LC50 (the source's name)
SK-MEL-5 = assay: Growth inhibition of human SK-MEL-5 cells after 48 hrs by sulforhodamine B assay; conditions: SK-MEL-5, 48 h; for CC50: read-out: LC50 (the source's name)
SK-MEL-28 = assay: Growth inhibition of human SK-MEL-28 cells after 48 hrs by sulforhodamine B assay; conditions: SK-MEL-28, 48 h; for CC50: read-out: LC50 (the source's name)
SF-268 = assay: Growth inhibition of human SF268 cells after 48 hrs by sulforhodamine B assay; conditions: SF-268, 48 h; for CC50: read-out: LC50 (the source's name)
KM12 = assay: Growth inhibition of human KM12 cells after 48 hrs by sulforhodamine B assay; conditions: KM12, 48 h; for CC50: read-out: LC50 (the source's name)
SW-620 = assay: Growth inhibition of human SW620 cells after 48 hrs by sulforhodamine B assay; conditions: SW-620, 48 h; for CC50: read-out: LC50 (the source's name)
COLO 205 [9] = assay: Growth inhibition of human COLO205 cells after 48 hrs by sulforhodamine B assay; conditions: COLO 205, 48 h; for CC50: read-out: LC50 (the source's name)
A549 = assay: Growth inhibition of human A549/ATCC cells after 48 hrs by sulforhodamine B assay; conditions: A549, 48 h; for CC50: read-out: LC50 (the source's name)
SR = assay: Growth inhibition of human SR cells after 48 hrs by sulforhodamine B assay; conditions: for CC50: read-out: LC50 (the source's name)
[10] = Growth inhibition of human BT549 cells assessed as cell growth at 10^-4 M after 48 hrs by sulforhodamine B assay; conditions: BT-549, 48 h, read-out: Activity
A498 [11] = assay: Growth inhibition of human A498 cells assessed as cell growth at 10^-4 M after 48 hrs by sulforhodamine B assay; conditions: A498, 48 h, read-out: Activity
[12] = Growth inhibition of human UACC257 cells assessed as cell growth at 10^-7 M after 48 hrs by sulforhodamine B assay; conditions: UACC-257, 48 h, read-out: Activity
[13] = Growth inhibition of human HCT15 cells assessed as cell growth at 10^-7 M after 48 hrs by sulforhodamine B assay; conditions: HCT-15, 48 h, read-out: Activity
NCI-H460 = assay: Growth inhibition of human NCI-H460 cells assessed as cell growth at 10^-7 M after 48 hrs by sulforhodamine B assay; conditions: NCI-H460, 48 h, read-out: Activity
RPMI-8226 = assay: Growth inhibition of human RPMI8226 cells assessed as cell growth at 10^-7 M after 48 hrs by sulforhodamine B assay; conditions: RPMI-8226, 48 h, read-out: Activity
[14] = Growth inhibition of human MOLT4 cells assessed as cell growth at 10^-7 M after 48 hrs by sulforhodamine B assay; conditions: MOLT-4, 48 h, read-out: Activity
MDA-MB-231 = assay: Growth inhibition of human MDA-MB-231 cells assessed as cell growth at 10^-8 M after 48 hrs by sulforhodamine B assay; conditions: MDA-MB-231, 48 h; for growth at 0.01 µM: read-out: Activity; for TGI: read-out: pTGI (converted)
DU-145 = assay: Growth inhibition of human DU145 cells assessed as cell growth at 10^-8 M after 48 hrs by sulforhodamine B assay; conditions: DU-145, 48 h; for growth at 0.01 µM: read-out: Activity; for TGI: read-out: pTGI (converted)
[15] = Growth inhibition of human OVCAR5 cells assessed as cell growth at 10^-8 M after 48 hrs by sulforhodamine B assay; conditions: OVCAR-5, 48 h; for growth at 0.01 µM: read-out: Activity; for TGI: read-out: pTGI (converted)

SMILES: O=C1/C(=C/c2ccc(Cl)cc2Cl)CN(S(=O)(=O)c2ccccc2)C/C1=C\c1ccc(Cl)cc1Cl
- Activity (COLO 205 [1]): 52%
- growth at 1 µM [2]: 86%
- growth at 1 µM (SNB-19): 10%
- growth at 100 µM [3]: 42%
- growth at 100 µM (NCI-H322M): -11%
- growth at 100 µM (NCI-H23): -28%
- growth at 100 µM (CCRF-CEM): -19%
- GI50 [4]: 813 nM
- LC50 [4]: 5750 nM
- growth at 0.01 µM [4]: 94%
- TGI [4]: 2290 nM
- GI50 (HCT-116): 200 nM
- LC50 (HCT-116): 912 nM
- growth at 0.01 µM (HCT-116): 99%
- TGI (HCT-116): 427 nM
- GI50 [5]: 589 nM
- growth at 0.01 µM [5]: 104%
- CC50 [5]: > 100000 nM
- TGI [5]: 9120 nM
- GI50 (K562): 347 nM
- growth at 0.01 µM (K562): 102%
- CC50 (K562): > 100000 nM
- TGI (K562): > 100000 nM
- GI50 [6]: 236 nM
- TGI [6]: 639 nM
- CC50 [6]: 4750 nM
- GI50 (A498 [7]): 727 nM
- TGI (A498 [7]): 4390 nM
- CC50 (A498 [7]): > 100000 nM
- GI50 [8]: 279 nM
- TGI [8]: > 100000 nM
- CC50 [8]: > 100000 nM
- TGI (SK-MEL-5): > 100000 nM
- CC50 (SK-MEL-5): > 100000 nM
- GI50 (SK-MEL-28): 4440 nM
- TGI (SK-MEL-28): > 100000 nM
- CC50 (SK-MEL-28): > 100000 nM
- GI50 (SF-268): 447 nM
- TGI (SF-268): > 100000 nM
- CC50 (SF-268): > 100000 nM
- GI50 (KM12): 256 nM
- TGI (KM12): 602 nM
- CC50 (KM12): 25700 nM
- GI50 (SW-620): 317 nM
- TGI (SW-620): 2790 nM
- CC50 (SW-620): > 100000 nM
- GI50 (COLO 205 [9]): 424 nM
- TGI (COLO 205 [9]): 2010 nM
- CC50 (COLO 205 [9]): > 100000 nM
- GI50 (A549): 277 nM
- TGI (A549): 887 nM
- CC50 (A549): > 100000 nM
- GI50 (SR): 185 nM
- TGI (SR): 865 nM
- CC50 (SR): > 100000 nM
- growth at 100 µM [10]: -42%
- growth at 100 µM (A498 [11]): -8%
- growth at 0.1 µM [12]: 90%
- growth at 0.1 µM [13]: 90%
- growth at 0.1 µM (NCI-H460): 98%
- growth at 0.1 µM (RPMI-8226): 91%
- growth at 0.1 µM [14]: 106%
- GI50 (MDA-MB-231): 468 nM
- growth at 0.01 µM (MDA-MB-231): 102%
- TGI (MDA-MB-231): 2140 nM
- GI50 (DU-145): 447 nM
- LC50 (DU-145): > 100000 nM
- growth at 0.01 µM (DU-145): 106%
- TGI (DU-145): 18600 nM
- GI50 [15]: 2140 nM
- LC50 [15]: > 100000 nM
- growth at 0.01 µM [15]: 92%
- TGI [15]: 7410 nM

SMILES: Cc1ccc(S(=O)(=O)N2C/C(=C\c3cc(F)cc(F)c3)C(=O)/C(=C/c3cc(F)cc(F)c3)C2)cc1
- Activity (COLO 205 [1]): 30%
- growth at 1 µM [2]: 49%
- growth at 1 µM (SNB-19): -12%
- growth at 100 µM [3]: -84%
- growth at 100 µM (NCI-H322M): -44%
- growth at 100 µM (NCI-H23): -72%
- growth at 100 µM (CCRF-CEM): -29%
- GI50 [4]: 214 nM
- LC50 [4]: 1620 nM
- growth at 0.01 µM [4]: 94%
- TGI [4]: 513 nM
- GI50 (HCT-116): 209 nM
- LC50 (HCT-116): 1950 nM
- growth at 0.01 µM (HCT-116): 107%
- TGI (HCT-116): 537 nM
- GI50 [5]: 302 nM
- growth at 0.01 µM [5]: 100%
- CC50 [5]: > 100000 nM
- TGI [5]: 2090 nM
- GI50 (K562): 77.6 nM
- growth at 0.01 µM (K562): 94%
- CC50 (K562): > 100000 nM
- TGI (K562): 1380 nM
- GI50 [6]: 1090 nM
- TGI [6]: 2370 nM
- CC50 [6]: 5170 nM
- GI50 (A498 [7]): 1880 nM
- TGI (A498 [7]): 4050 nM
- CC50 (A498 [7]): 8760 nM
- GI50 [8]: 441 nM
- TGI [8]: 5230 nM
- CC50 [8]: 36300 nM
- GI50 (SK-MEL-5): 286 nM
- TGI (SK-MEL-5): 1080 nM
- CC50 (SK-MEL-5): 3600 nM
- GI50 (SK-MEL-28): 473 nM
- TGI (SK-MEL-28): 1790 nM
- CC50 (SK-MEL-28): 4820 nM
- GI50 (SF-268): 431 nM
- TGI (SF-268): 2150 nM
- CC50 (SF-268): 14400 nM
- GI50 (KM12): 327 nM
- TGI (KM12): 1000 nM
- CC50 (KM12): 4040 nM
- GI50 (SW-620): 72.1 nM
- TGI (SW-620): 305 nM
- CC50 (SW-620): 1450 nM
- GI50 (COLO 205 [9]): 612 nM
- TGI (COLO 205 [9]): 2110 nM
- CC50 (COLO 205 [9]): 6140 nM
- GI50 (A549): 2860 nM
- TGI (A549): 14600 nM
- CC50 (A549): > 100000 nM
- GI50 (SR): 34.8 nM
- TGI (SR): 252 nM
- CC50 (SR): > 100000 nM
- growth at 100 µM [10]: -95%
- growth at 100 µM (A498 [11]): -86%
- growth at 0.1 µM [12]: 87%
- growth at 0.1 µM [13]: 80%
- growth at 0.1 µM (NCI-H460): 104%
- growth at 0.1 µM (RPMI-8226): 17%
- growth at 0.1 µM [14]: 88%
- GI50 (MDA-MB-231): 269 nM
- LC50 (MDA-MB-231): 8510 nM
- growth at 0.01 µM (MDA-MB-231): 98%
- TGI (MDA-MB-231): 776 nM
- GI50 (DU-145): 1230 nM
- LC50 (DU-145): 7590 nM
- growth at 0.01 µM (DU-145): 106%
- TGI (DU-145): 3090 nM
- GI50 [15]: 1020 nM
- LC50 [15]: 7410 nM
- growth at 0.01 µM [15]: 95%
- TGI [15]: 2750 nM
